Results: US20260035364A1, “BICYCLIC TETRAHYDROTHIAZEPINE DERIVATIVES” (Hoffmann-La Roche Inc., priority 2022, published 2026)

Tests used:
DGKalpha = DGKalpha (Homo sapiens, UniProt P23743); test: In vitro DGK inhibition assay (ADP-Glo, liposomes), DGKalpha; type: biochemical; parameters: hDGKalpha(1-735)-N-His; His (N); made in house; host or cells: Sf21 insect cells (baculovirus); details: 4 nM DGK α, 25 μM ATP, 125 uM DLG in liposomes, 1 hour reaction
Procedure, shortened: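 Full-length human DGKα (4 nM) or DGKζ (2 nM) from Sf21 cells, with DLG substrate at 125 uM in PS/PC liposomes and ATP at 25 μM (α) or 50 μM (ζ); 1 h reaction. ADP formed read by ADP-Glo luminescence; compounds 11-point, 1:3 dilutions from 10 mM, 2% DMSO final.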

DGKzeta = DGKzeta (Homo sapiens, UniProt Q13574); test: In vitro DGK inhibition assay (ADP-Glo, liposomes), DGKzeta; type: biochemical; parameters: hDGKzeta(1-928)-N-His; His (N); made in house; host or cells: Sf21 insect cells (baculovirus); details: 2 nM DGK ζ, 50 μM ATP, 125 uM DLG in liposomes, 1 hour reaction
DGKzeta, sequence (Q13574 whole entry): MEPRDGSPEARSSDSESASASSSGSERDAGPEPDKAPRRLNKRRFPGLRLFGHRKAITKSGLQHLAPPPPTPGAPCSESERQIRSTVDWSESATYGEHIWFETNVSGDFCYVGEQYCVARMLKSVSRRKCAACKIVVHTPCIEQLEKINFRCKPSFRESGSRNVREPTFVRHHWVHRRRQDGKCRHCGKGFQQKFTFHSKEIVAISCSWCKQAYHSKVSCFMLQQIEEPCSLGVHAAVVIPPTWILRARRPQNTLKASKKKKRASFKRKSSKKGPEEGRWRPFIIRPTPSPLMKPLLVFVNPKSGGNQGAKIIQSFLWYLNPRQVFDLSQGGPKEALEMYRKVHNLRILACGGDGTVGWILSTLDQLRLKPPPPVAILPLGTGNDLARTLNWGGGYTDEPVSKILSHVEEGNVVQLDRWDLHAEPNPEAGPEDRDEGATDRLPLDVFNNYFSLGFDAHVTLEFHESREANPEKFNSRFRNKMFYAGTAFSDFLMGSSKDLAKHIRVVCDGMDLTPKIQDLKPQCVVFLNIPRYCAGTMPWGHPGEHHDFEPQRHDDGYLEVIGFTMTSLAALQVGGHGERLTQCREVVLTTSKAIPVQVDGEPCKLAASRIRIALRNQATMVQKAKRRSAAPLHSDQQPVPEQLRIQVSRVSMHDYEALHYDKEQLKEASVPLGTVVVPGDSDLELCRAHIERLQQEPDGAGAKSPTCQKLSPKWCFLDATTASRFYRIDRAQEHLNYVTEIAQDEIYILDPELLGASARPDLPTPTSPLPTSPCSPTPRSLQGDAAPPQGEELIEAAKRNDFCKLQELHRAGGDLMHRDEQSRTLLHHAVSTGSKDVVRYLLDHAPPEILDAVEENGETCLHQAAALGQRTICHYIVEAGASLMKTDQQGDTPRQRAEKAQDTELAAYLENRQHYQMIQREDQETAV
Procedure, shortened: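 DGKζ (2 nM) phosphorylated DLG presented in DLG/PS/PC liposomes (final DLG 125 μM) with 50 μM ATP for 1 hour. ADP formed was read by ADP-Glo luminescence. Compounds were tested as 11-point 1:3 dose responses in 2% final DMSO.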

primary human T-cells = test: IL2 secretion measurements in CD3-stimulated T-cells; type: cell-based; details: Homo sapiens, T-cell, 24 h, CD3 condition; for Emax: IL2 after 24 hours, 20 μM reference compound A1 = 100%, read-out: Emax IL2 (% activation); for EC50: IL2 secretion after 24 hours, read-out: Tcell IL2 CD3 EC50
Procedure, shortened: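 Expanded primary human T-cells (100k/well) were stimulated on CD3 antibody-coated or PBS-coated plates with compounds in 5–6 point dose response from 20 or 10 μM top final (dilution factor 3.333, 0.2% DMSO final). IL2 in 24 h supernatants was measured by ProQuantum immunoassay or ELISA, normalized to DMSO (0%) and 20 μM reference compound A1 (100%) to fit EC50 and Emax.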

DGKalpha, sequence (P23743 whole entry): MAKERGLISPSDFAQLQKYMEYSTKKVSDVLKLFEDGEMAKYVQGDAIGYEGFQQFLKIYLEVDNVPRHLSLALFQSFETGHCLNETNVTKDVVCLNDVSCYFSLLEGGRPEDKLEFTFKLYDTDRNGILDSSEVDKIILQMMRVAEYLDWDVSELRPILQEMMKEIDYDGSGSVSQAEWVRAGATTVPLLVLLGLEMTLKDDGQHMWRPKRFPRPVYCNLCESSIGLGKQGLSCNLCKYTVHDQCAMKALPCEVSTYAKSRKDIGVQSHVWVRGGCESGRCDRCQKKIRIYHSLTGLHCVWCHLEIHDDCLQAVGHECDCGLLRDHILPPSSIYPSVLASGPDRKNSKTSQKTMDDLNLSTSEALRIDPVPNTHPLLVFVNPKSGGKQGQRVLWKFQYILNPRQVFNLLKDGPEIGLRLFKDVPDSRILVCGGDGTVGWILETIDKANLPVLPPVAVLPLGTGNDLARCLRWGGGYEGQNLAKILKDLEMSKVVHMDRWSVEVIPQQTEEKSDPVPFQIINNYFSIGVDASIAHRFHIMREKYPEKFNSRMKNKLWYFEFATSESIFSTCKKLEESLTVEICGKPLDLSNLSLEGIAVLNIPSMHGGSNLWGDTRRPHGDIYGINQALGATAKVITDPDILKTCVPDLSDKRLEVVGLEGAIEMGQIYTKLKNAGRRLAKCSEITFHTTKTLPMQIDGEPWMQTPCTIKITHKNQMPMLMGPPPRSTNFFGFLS

SMILES	IC50 (DGKalpha) [nM]	IC50 (DGKzeta) [nM]	Emax (primary human T-cells) [%]	EC50 (primary human T-cells) [nM]
CS(=O)(=O)C1(c2nnc(-c3ccc4c(c3)N(Cc3ccc(Oc5ccccc5)cc3)C(=O)[C@@H](N)CS4(=O)=O)o2)CC1 [Example 66, (3R)-3-amino-7-[5-(1-methylsulfonylcyclopropyl)-1,3,4-oxadiazol-2-yl]-1,1-dioxo-5-[(4-phenoxyphenyl)methyl]-2,3-dihydro-1λ6,5-benzothiazepin-4-one]	10700	1160	52	9170
CC(C)(c1nnc(-c2ccc3c(c2)N(Cc2ccc(-c4ccc(C(F)(F)F)cc4)cc2)C(=O)[C@@H](N)CS3(=O)=O)o1)S(=O)(=O)N1CCCC1 [Example 67, (3R)-3-amino-7-[5-(1-methyl-1-pyrrolidin-1-ylsulfonyl-ethyl)-1,3,4-oxadiazol-2-yl]-1,1-dioxo-5-[[4-[4-(trifluoromethyl)phenyl]phenyl]methyl]-2,3-dihydro-1λ6,5-benzothiazepin-4-one]	> 62500	49700	71	1760
CS(=O)(=O)C1(c2nnc(-c3ccc4c(c3)N(Cc3ccc(Oc5ccccc5)cc3)C(=O)[C@@H](N)CS4(=O)=O)o2)CCC1 [Example 68, (3R)-3-amino-7-[5-(1-methylsulfonylcyclobutyl)-1,3,4-oxadiazol-2-yl]-1,1-dioxo-5-[(4-phenoxyphenyl)methyl]-2,3-dihydro-1λ6,5-benzothiazepin-4-one]	> 62500	3500	41	2200
CC(C)(c1nnc(-c2ccc3c(c2)N(Cc2ccc(-c4ccc(OC(F)(F)F)cn4)cc2)C(=O)[C@@H](N)CS3(=O)=O)o1)S(C)(=O)=O [Example 69, (3R)-3-amino-1,1-diketo-7-[5-(1-mesyl-1-methyl-ethyl)-1,3,4-oxadiazol-2-yl]-5-[4-[5-(trifluoromethoxy)-2-pyridyl]benzyl]-2,3-dihydro-1λ6,5-benzothiazepin-4-one]	175	826	97	497
